Laboratory results published in article PMC3118832 (Clinical Therapeutics, 2011).
Where two headings read alike, the source gives them in different places. Each block holds one molecule with its values, some of them ahead of it.

Legend:
[1] = cited from earlier work; for enzymatic autoinduction: administered continuously over several days; for CL/F / Vd/F / t1/2: healthy Vietnamese male volunteers, single oral administration, mean
[2] = clinical; settings: human, in vivo
Method: The study was conducted at HTD-HCMC. The clinical trial protocol was reviewed and supported by the internal Scientific and Ethical Committee of the HTD-HCMC and Oxford Tropical Research Ethics Committee (OxTREC 019-06), University of Oxford, Oxford, United Kingdom. The volunteers were randomly assigned to 1 of the 24 possible sequences for the 4 treatment groups (Table I). […] A fixed tablet combination of piperaquine and the reference Vietnamese formulation is not commercially available and could not be included in this trial.
Study drug was administered with 200 mL of drinking water after an overnight fast of >10 hours, according to US Food and Drug Administration (FDA) guidelines for bioequivalence studies.[30] The volunteers were asked to continue fasting for 2 hours after drug administration. Beverages containing caffeine or alcohol were not allowed on days of drug administration and blood sampling. […] Tolerability was assessed daily by the clinician during each study occasion (using an adverse-event report form) and at the follow-up visit 1 week after last study occasion (using an adverse-event report form and laboratory assessment). Adverse events were accessed by using an open question about potential health problems during the study and followed up with a questionnaire if any health problems had occurred since the last consultation.
An intravenous indwelling cannula was introduced and maintained in the antecubital vein and kept for 12 hours during blood sample collection at each study visit. A blood volume of 0.5 mL was discarded before sample collection to avoid drug dilution effects. A5-mL blood sample was drawn into lithium heparin tubes (Hong Thien My Medical Equipment Joint Stock Co., Ho Chi Minh City, Vietnam) before drug administration (predose) and at the following times after drug administration (postdose): 0.25, 0.5, 1, 1.5, 2, 2.5, 3, 4, 5, 6, 7, 8, 10, and 12 hours. The same time schedule was followed for all study visits. Saline solution (0.9% sodium chloride, 2 mL) was used to flush the lines after blood collection. Blood samples were immediately centrifuged at 3000g for 10 minutes at 20°C. Plasma were transferred to cryotubes within 10 minutes after centrifugation and stored directly at –70°C. All samples were freighted to Thailand on dry ice and analyzed by the Clinical Pharmacology Laboratory at Mahidol–Oxford Tropical Medicine Research Unit (Bangkok, Thailand).
The LC-MS/MS system consisted of an Agilent 1200 LC system including an autosampler set at 4°C and a column oven set at 40°C (Agilent Technologies Inc., Santa Clara, California) coupled with an API 5000 triple quadrupole mass spectrometer (Applied Biosystems/MDS SCIEX, Foster City, California). The lower limit of quantitation was set to 1.03 ng/mL, with a limit of detection of 0.257 ng/mL. […] Three independent quality-control samples in plasma (2.89, 40.7, and 571 ng/mL) were prepared fresh and analyzed in triplicate in each batch of extracted plasma samples. All samples were kept on ice until loaded onto the solid-phase extraction plate. The extracted samples were injected directly (5 μL) into the LC-MS/MS system.
AUC0–last values were calculated using the linear trapezoidal method for ascending concentrations and the logarithmic trapezoidal method for descending concentrations.[33] […] Cmax and Tmax concentrations were taken directly from the observed data. Vd/F and CL/F were computed individually according to standard procedures and summarized for each treatment group. […]

[3] = Tolerability: adverse-event reports and laboratory assessment at follow-up; format: in vivo, human
Method: Fifteen healthy Vietnamese male volunteers aged 18 to 55 years were enrolled in the study. No female subjects were enrolled to avoid potential risks of adverse effects on the fetus during early pregnancy. The study design and potential adverse drug effects were explained to all volunteers in their own language before initiation of any study-related procedures. Volunteers who provided written informed consent were considered for enrollment. Clinical and laboratory screenings were performed at the Hospital for Tropical Diseases in Ho Chi Minh City (HTD-HCMC), Vietnam, and the results evaluated before enrollment. Clinical evaluation and laboratory assessment (full hematology and biochemistry) were also performed at follow-up 1 week after the last study visit.

[4] = posttreatment (follow-up 1 week after last visit), mean (SD)

Structure (SMILES): C[C@H]1[C@@H](O)O[C@@H]2O[C@@]3(C)CC[C@H]4[C@H](C)CC[C@@H]1[C@@]24OO3 [dihydroartemisinin]
enzymatic autoinduction [1]: not

oral clearance in smokers compared with nonsmokers ([2]; po): significantly higher
CL/F ([2]; male): 121 mL/min/kg
Vd ([2]; male): 1320 L
Vd/F ([2]; male): 22.8 L/kg
half-life ([2]; male): 2.23 h
Structure (SMILES): C[C@@H]1CC[C@H]2[C@@H](C)C(=O)O[C@@H]3O[C@@]4(C)CC[C@@H]1[C@]32OO4 [artemisinin]
tolerability / adverse events ([3]; 15 healthy volunteers, single oral doses): no adverse events were reported
volunteers with higher aspartate aminotransferase at follow-up compared with baseline ([3]; levels still in the normal range): Six of the 15
Urea ([3]; posttreatment (follow-up 1 week after last of 4 single-dose visits), mean (SD)): 5.36 (1.5) [2.4–7.2] mM
ALT [3, 4]: 44.7 (25) [15–120] U/L
AST [3, 4]: 29.1 (16) [19–80] U/L
Albumin [3, 4]: 39.7 (4.2) [30–46] g/L
Basophils [3, 4]: 1.12 (0.49) [0.23–2.1] %
Eosinophils [3, 4]: 5.34 (3.2) [1.6–13] %
Erythrocytes [3, 4]: 5.23 (0.49) [4.6–6.1] 10^12/L
Ferritin [3, 4]: 117 (36) [69–190] μg/L
Globulin [3, 4]: 37.7 (6.5) [30–47] g/L
Glucose [3, 4]: 3.91 (0.35) [3.5–4.4] mM
Hematocrit [3, 4]: 47.7 (2.5) [45–53] %
Hemoglobin [3, 4]: 15.6 (0.78) [15–18] g/dL
Leukocytes [3, 4]: 7.62 (1.5) [5.4–10] 10^9/L
Lymphocytes [3, 4]: 32.5 (6.2) [21–43] %
Magnesium [3, 4]: 0.896 (0.17) [0.70–1.1] mM
Monocytes [3, 4]: 7.47 (1.4) [5.3–10] %
Neutrophils [3, 4]: 53.7 (6.5) [45–63] %
Reticulocytes [3, 4]: 0.700 (0.34) [0.10–1.5] %
Thrombocytes [3, 4]: 258 (59) [130–330] 10^9/L
Total bilirubin [3, 4]: 16.1 (4.0) [9.0–20] μM
Total protein [3, 4]: 77.3 (5.1) [67–82] g/L
CL/F ([1]; ref 31): 127 mL/min/kg
Vd/F ([1]; ref 31): 35.9 L/kg
t1/2 ([1]; ref 31): 2.10 h
CL/F ([1]; ref 35): 85 mL/min/kg
Vd/F ([1]; ref 35): 19.4 L/kg
t1/2 ([1]; ref 35): 2.59 h
CL/F ([1]; ref 36): 89.7 mL/min/kg
Vd/F ([1]; ref 36): 16.4 L/kg
t1/2 ([1]; ref 36): 2.51 h
bioavailability ([1]; in vivo): < 30%

Structure (SMILES): CO[C@H]1O[C@@H]2O[C@@]3(C)CC[C@H]4[C@H](C)CC[C@@H]([C@H]1C)[C@@]24OO3 [artemether]
enzymatic autoinduction [1]: marked ability for enzymatic autoinduction
